Measured values as given in patent publication US10667516B2, “Use of 3-isoxazolidinones as selective herbicides in grass and Brassica crops” (FMC Corporation, priority 2011, dated 2020).

Test system: chickweed
Test: Volatility evaluation (phytotoxic injury of chickweed by volatilization from treated soil)
Conditions: formulations containing the non-encapsulated compound
Text: Chickweed is very sensitive to clomazone and is a good indicator for bleaching compound volatility. […] These formulations are the reference standards against which the experimental formulations are compared. Four inch plastic pots were fitted with a basket style coffee filter, cut to size, placed in the bottom of each pot to cover the drainage holes and to stop soil from exiting the bottom of the pot. Each pot was filled with sandy loam soil that was sieved using a #10 mesh sieve to remove any large soil particles and debris. Filled soil pots were lightly watered prior to treatment application. The test solutions were applied to the soil surface using the DeVries Generation III sprayer, two replicates per test solution, at a rate of 0.25 g ai/ha. Each replicate test was set-up by placing an empty four inch plastic pot onto a greenhouse bench. Pots containing mature chickweed, about 2 inches in height, were placed around the empty pot in an eight spoke pattern. […] The untreated chickweed plants were evaluated for phytotoxic injury at 14 days after treatment. Volatility was evaluated by measuring the distance (cm) from the center of the treated soil pot to the distal point where bleaching effects were observed on each spoke. All eight spokes for each treatment were evaluated. The amount of volatility was determined by calculating the total square centimeters of phytotoxic injury per treatment. […]

Compound	control of volatility compared to the non-encapsulated clomazone formulation
CC1(C)CON(Cc2ccc(Cl)cc2Cl)C1=O [2,4-Cl, 2-(2,4-dichlorophenyl)methyl-4,4-dimethyl-3-isoxazolidone]	significant control of volatility
CC1(C)CON(Cc2cc(Cl)ccc2Cl)C1=O [2,5-Cl, 2-(2,5-dichlorophenyl)methyl-4,4-dimethyl-3-isoxazolidone]	significant control of volatility
